Reference: patent publication US5773236A, “Assay for glutathiane transferase using polyhaloaryl-substituted reporter molecules” (Molecule Probes, Inc., priority 1997, dated 1998)
Where a name gives a salt, the structure may show the parent alone.

What follows are molecules tested on glutathione S-transferase (assay: Other derivatives tested as GSH/GST substrates, TLC (Example 54)). Settings: 0.2-0.5 mM compound in 50 mM MOPS, pH 7.5, TLC.
Assay type: biochemical
Protocol: The reaction is then stopped by adding 10% H2 O2.
The PHA compound (ethanol stock solution, 2 mM) and reduced glutathione (phosphate buffer stock solution, 5 mM) are incubated under the same conditions as described above without addition of glutathione S-transferase.
Commercial precast silica gel TLC plates are used to follow both the enzymatic reaction and the blank control reaction. […] UV absorbance by the PHA substituent always permits detection of both the compound and any glutathione adduct by fluorescence quenching when the TLC sheet is illuminated with 254-nm radiation. Fluorescent compounds can be directly detected using appropriate UV or visible illumination. […] Furthermore, the intensity of the signal on the TLC sheet often can be enhanced by methods well known in the art, such as by application of a phosphomolybdate spray, iodine vapors or a similar detection reagent. Radioactive products can be directly detected and quantitated by exposure to a suitable film using methods well known in the art.
`NCCNC(=O)c1c(F)c(F)c(F)c(F)c1F` [Compound 31, ((2-(pentafluorobenzoyl)amino)ethyl)ammonium trifluoroacetate] was tested, and the glutathione adducts detected was “detectable glutathione adducts”. With `Cc1cc(C)n2c1C=C1C=CC(CCC(=O)NCCNC(=O)c3c(F)c(F)c(F)c(F)c3F)=[N+]1[B-]2(F)F` [Compound 30] the glutathione adducts detected was “detectable glutathione adducts”. For `O=C(NCCNC(=O)c1cc2ccc(O)cc2oc1=O)c1c(F)c(F)c(F)c(F)c1F` [Compound 32, 7-hydroxy-3-((((2-(pentafluorobenzoyl)amino)ethyl)amino)carbonyl)coumarin], the glutathione adducts detected was “detectable glutathione adducts”. For `O=C1OC2(c3ccc(O)cc3Oc3cc(O)ccc32)c2ccc(NC(=O)c3c(F)c(F)c(F)c(F)c3C(=O)O)cc21` [Compound 27, 5-(2'-carboxy-3',4',5',6'-tetrafluorobenzoylamino)fluorescein], the glutathione adducts detected was “detectable glutathione adducts”. With `CN(C)c1ccc2c(CC(=O)NCCNC(=O)c3c(F)c(F)c(F)c(F)c3F)cc(=O)oc2c1` [Compound 40, 7-dimethylamino-4-(((((2-(pentafluorobenzoyl)amino)ethyl)amino)carbonyl)methyl)coumarin] the glutathione adducts detected was “detectable glutathione adducts”. With `O=C(c1c(F)c(F)c(F)c(F)c1F)c1cc2ccc(O)cc2oc1=O` [7-hydroxy-3-(pentafluorobenzoyl)coumarin] the glutathione adducts detected was “detectable glutathione adducts”. With `O=c1[nH][nH]c(=O)c2c(F)c(F)c(F)c(F)c12` [Compound 43, tetrafluorophthalhydrazide] the glutathione adducts detected was “detectable glutathione adducts”. With `O=C(c1c(F)c(F)c(F)c(F)c1F)c1cc2cc(F)c(O)c(F)c2oc1=O` [Compound 42, 6,8-difluoro-7-hydroxy-3-pentafluorobenzoylcoumarin] the glutathione adducts detected was “detectable glutathione adducts”. With `CN(C)c1ccc2c(c1)Oc1cc(N(C)C)ccc1C21OC(=O)c2cc(NC(=O)c3c(F)c(F)c(F)c(F)c3F)ccc21` [Compound 25, 5-(pentafluorobenzoylamino)tetramethylrhodamine] the glutathione adducts detected was “detectable glutathione adducts”. For `O=C(Nc1ccc2c(c1)C(=O)OC21c2ccc(O)cc2Oc2cc(O)ccc21)c1cc(F)c(F)c(F)c1` [Compound 26, 5-(3',4',5'-trifluorobenzoylamino)fluorescein], the glutathione adducts detected was “detectable glutathione adducts”. For `O=c1oc2cc(O)ccc2cc1-c1c(F)c(F)c(F)c(F)c1F` [Compound 41, 7-hydroxy-3-pentafluorophenylcoumarin], the glutathione adducts detected was “detectable glutathione adducts”. With `O=C1OC2(c3ccc(O)cc3Oc3cc(O)ccc32)c2ccc(N3C(=O)c4c(F)c(F)c(F)c(F)c4C3=O)cc21` [Compound 28, 5-tetrafluorophthalimidylfluorescein] the glutathione adducts detected was “detectable glutathione adducts”. `CCN(CC)c1ccc2c(CNC(=O)c3c(F)c(F)c(F)c(F)c3F)cc(=O)oc2c1` [Compound 29, 7-diethylamino-4-(((Pentafluorobenzoyl)amino)methyl)coumarin] was tested, and the glutathione adducts detected was “detectable glutathione adducts”. In the case of `O=C(c1c(F)c(F)c(F)c(F)c1F)N1CCN(C(=O)c2c3oc4cc(O[C@@H]5O[C@H](CO)[C@H](O)[C@H](O)[C@H]5O)c(Cl)cc4nc-3ccc2=O)CC1` [Compound 22, 8-chloro-3,7-dihydroxy-4-(4-pentafluorobenzoyl-1-piperazinecarbonyl)phenoxazine β-D-galactopyranoside], the glutathione adducts detected is reported as “detectable glutathione adducts”.

Each molecule was assayed on Bovine pulmonary aorta endothelial cells (BPAEC) (assay: Glutathione adduct formation and fate of substrate in cultured animal cells, HPLC (Example 66)). Settings: BPAEC, up to 4 hours.
Assay type: cell-based
Protocol: The solutions are mixed overnight with three volumes of ethyl acetate followed by centrifugation at 15,000×g for 30 min to separate the organic and aqueous layers. HPLC analysis using a Rainin HPLC equipped with a C18, 5 μm, 100 Å, 4.6×250 mm MICROSORB-MV reverse phase column. […] Products are detected by reading the absorbance at 500 nm.
Bovine pulmonary aorta endothelial cells (BPAEC) are removed from flasks by trypsinization and washed into fresh complete growth medium to yield 10^6 cells/mL. […] Other aliquots of the cell suspension are loaded with the same substrates for 1 hour, rinsed into fresh complete medium, then incubated in the absence of substrate for an additional 3 hr at 37° C. to look for retention and efflux of fluorescent products. At the end of each incubation period the cells are removed by centrifugation and the supernate is retained. The cell pellets are resuspended in 1 mL of E-Pure water and subjected to three freeze-thaw cycles (-80° C. to 37° C.).
With `N[C@@H](CCC(=O)N[C@@H](CSc1c(F)c(F)c(C(=O)Nc2ccc3c(c2)C(=O)OC32c3ccc(O)cc3Oc3cc(O)ccc32)c(F)c1F)C(=O)NCC(=O)O)C(=O)O` [Compound 45, 5-(4'-(S-glutathionyl))-(2',3', 5',6'-tetrafluorobenzoylamino)fluorescein] the “retention of GSH adduct / fluorescence labeling in cells” value was “rapidly removed from the cytoplasm of these BPAEC cells but a fraction of the fluorescence labeling is retained, even after 4 hours”.
